Assay results published in PubChem BioAssay (NCI).
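Dose response: 5 concentrations. Exposure: 48 h. Format: 96-well plates. Endpoint: linear interpolation; highest concentration if not reached. GI50 is the concentration that inhibits growth by half. The concentration for full growth arrest is given as TGI.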

Legend:
Test in all cases: inhibition of tumour cell growth, NCI panel, 48 h
[1] = system: IGROV1 ovarian
[2] = system: OVCAR-5 ovarian
[3] = system: K-562 leukemia
[4] = system: DU-145 prostate
[5] = system: SK-MEL-5 melanoma
[6] = system: UACC-62 melanoma
[7] = system: NCI-H23 lung
[8] = system: MDA-N
[9] = system: NCI-H460 lung
[10] = system: HCC-2998 colon
[11] = system: UACC-257 melanoma
[12] = system: HOP-62 NSCLC
[13] = system: TK-10 renal
[14] = system: PC-3 prostate
[15] = system: OVCAR-4 ovarian
[16] = system: 786-0 renal
[17] = system: COLO 205 colon
[18] = system: SF-268 CNS
[19] = system: HL-60(TB) leukemia
[20] = system: MALME-3M melanoma
[21] = system: RPMI-8226 leukemia
[22] = system: MOLT-4 leukemia
[23] = system: CCRF-CEM leukemia
[24] = system: MDA-MB-231 breast
[25] = system: LOX IMVI melanoma
[26] = system: OVCAR-3 ovarian
[27] = system: SK-MEL-28 melanoma
[28] = system: NCI/ADR-RES ovarian
[29] = system: HCT-15 colon
[30] = system: HCT-116 colon
[31] = system: U251 CNS
[32] = system: CAKI-1 renal
[33] = system: MCF7 breast
[34] = system: HS 578T breast
[35] = system: NCI-H226 lung
[36] = system: HT29 colon
[37] = system: OVCAR-8 ovarian
[38] = system: HOP-92 NSCLC
[39] = system: SN12C renal
[40] = system: UO-31 renal
[41] = system: A498 renal
[42] = system: SK-OV-3 ovarian
[43] = system: M14 melanoma
[44] = system: SK-MEL-2 melanoma
[45] = system: RXF 393 renal
[46] = system: ACHN renal
[47] = system: SR leukemia
[48] = system: SF-295 CNS
[49] = system: MDA-MB-435
[50] = system: SNB-19 CNS
[51] = system: A549 NSCLC
[52] = system: KM12 colon
[53] = system: SW-620 colon
[54] = system: SF-539 CNS
[55] = system: SNB-75 CNS
[56] = system: BT-549 breast
[57] = system: T-47D breast
[58] = system: EKVX NSCLC
[59] = system: NCI-H522 lung

Compound: CC(C)=CCC[C@@H](C)c1c(O)c(O)c(C)c2nc3ccccc3nc12
- TGI [1]: 10.7 µM
- TGI [2]: 17.6 µM
- TGI [3]: > 32.5 µM
- TGI [4]: 10.3 µM
- TGI [5]: 10.6 µM
- TGI [6]: 6.72 µM
- TGI [7]: 8.61 µM
- TGI [8]: 15.9 µM
- TGI [9]: 32.4 µM
- TGI [10]: 22.2 µM
- TGI [11]: 12.7 µM
- TGI [12]: 8.48 µM
- TGI [13]: 17 µM
- TGI [14]: 11.3 µM
- TGI [15]: 19.9 µM
- TGI [16]: 12.1 µM
- TGI [17]: 18.1 µM
- TGI [18]: 7.22 µM
- TGI [19]: 2.98 µM
- TGI [20]: 7.53 µM
- TGI [21]: > 20.2 µM
- TGI [22]: > 27.9 µM
- TGI [23]: 0.8 µM
- TGI [24]: 15 µM
- TGI [25]: 16.8 µM
- TGI [26]: 3.28 µM
- TGI [27]: 23.8 µM
- TGI [28]: 7.48 µM
- TGI [29]: 15 µM
- TGI [30]: 12.2 µM
- TGI [31]: 22.8 µM
- TGI [32]: 9.01 µM
- TGI [33]: 13.4 µM
- TGI [34]: 8.37 µM
- TGI [35]: 5.97 µM
- TGI [36]: 17.5 µM
- TGI [37]: 24.2 µM
- TGI [38]: 5.11 µM
- TGI [39]: 6.38 µM
- TGI [40]: 5.61 µM
- TGI [41]: 7.97 µM
- TGI [42]: 21.7 µM
- TGI [43]: 12.9 µM
- TGI [44]: 9.26 µM
- TGI [45]: 4.45 µM
- TGI [46]: 5.64 µM
- TGI [47]: > 100 µM
- TGI [48]: 4.93 µM
- TGI [49]: 18.3 µM
- TGI [50]: 15.5 µM
- TGI [51]: 9.15 µM
- TGI [52]: 13.2 µM
- TGI [53]: > 100 µM
- TGI [54]: 6.71 µM
- TGI [55]: 6.8 µM
- TGI [56]: 17.1 µM
- TGI [57]: 10.6 µM
- TGI [58]: 14.8 µM

Compound: CC(=N\O)/C(C)=N/O.CC(=N\O)/C(C)=N/O.[Pd]
- GI50 [1]: 3.09 µM
- TGI [1]: 9.16 µM
- GI50 [2]: 6.47 µM
- TGI [2]: > 10 µM
- GI50 [3]: > 10 µM
- TGI [3]: > 10 µM
- GI50 [4]: 6.48 µM
- TGI [4]: > 10 µM
- GI50 [5]: 1810 nM
- TGI [5]: 4.04 µM
- GI50 [6]: 2110 nM
- TGI [6]: 5.75 µM
- GI50 [7]: 2600 nM
- TGI [7]: 6.38 µM
- GI50 [8]: 2150 nM
- TGI [8]: 4.87 µM
- GI50 [9]: 9.28 µM
- TGI [9]: > 10 µM
- GI50 [10]: > 10 µM
- TGI [10]: > 10 µM
- GI50 [11]: 3.15 µM
- TGI [11]: > 10 µM
- GI50 [12]: 5.62 µM
- TGI [12]: > 10 µM
- GI50 [13]: 4.57 µM
- TGI [13]: > 10 µM
- GI50 [14]: 4.73 µM
- TGI [14]: > 10 µM
- GI50 [15]: 4.72 µM
- TGI [15]: > 10 µM
- GI50 [16]: 3.31 µM
- TGI [16]: 8.86 µM
- GI50 [17]: 3.84 µM
- TGI [17]: > 10 µM
- GI50 [18]: 6.95 µM
- TGI [18]: > 10 µM
- GI50 [19]: 4 µM
- TGI [19]: > 10 µM
- GI50 [20]: 1900 nM
- TGI [20]: 4.53 µM
- GI50 [21]: 7.39 µM
- TGI [21]: > 10 µM
- GI50 [22]: > 10 µM
- TGI [22]: > 10 µM
- GI50 [23]: 2040 nM
- TGI [23]: 6.13 µM
- GI50 [24]: 3.3 µM
- TGI [24]: 9.03 µM
- GI50 [25]: 1580 nM
- TGI [25]: 3.16 µM
- GI50 [26]: 3.83 µM
- TGI [26]: > 10 µM
- GI50 [27]: 3.87 µM
- TGI [27]: 9.48 µM
- GI50 [28]: 3.18 µM
- TGI [28]: 7.72 µM
- GI50 [29]: 2440 nM
- TGI [29]: 7.08 µM
- GI50 [59]: 2080 nM
- TGI [59]: 5.03 µM
- GI50 [30]: 2380 nM
- TGI [30]: 4.79 µM
- GI50 [31]: 5.12 µM
- TGI [31]: > 10 µM
- GI50 [32]: > 10 µM
- TGI [32]: > 10 µM
- GI50 [33]: 4.98 µM
- TGI [33]: > 10 µM
- GI50 [34]: 1940 nM
- TGI [34]: > 10 µM
- GI50 [35]: > 10 µM
- TGI [35]: > 10 µM
- GI50 [36]: 2770 nM
- TGI [36]: 7.99 µM
- GI50 [37]: 1840 nM
- TGI [37]: 3.62 µM
- GI50 [39]: 8.65 µM
- TGI [39]: > 10 µM
- GI50 [41]: 4.9 µM
- TGI [41]: > 10 µM
- GI50 [42]: 7.62 µM
- TGI [42]: > 10 µM
- GI50 [43]: 3.04 µM
- TGI [43]: 8.55 µM
- GI50 [44]: 3.31 µM
- TGI [44]: 8.67 µM
- GI50 [45]: 3.42 µM
- TGI [45]: 7.42 µM
- GI50 [46]: > 10 µM
- TGI [46]: > 10 µM
- GI50 [47]: > 10 µM
- TGI [47]: > 10 µM
- GI50 [48]: > 10 µM
- TGI [48]: > 10 µM
- GI50 [49]: 2640 nM
- TGI [49]: 5.43 µM
- GI50 [50]: > 10 µM
- TGI [50]: > 10 µM
- GI50 [51]: 7.03 µM
- TGI [51]: > 10 µM
- GI50 [52]: 2790 nM
- TGI [52]: 8.01 µM
- GI50 [53]: 3.44 µM
- TGI [53]: > 10 µM
- GI50 [54]: 2770 nM
- TGI [54]: 6.1 µM
- GI50 [56]: 8.49 µM
- TGI [56]: > 10 µM
- GI50 [57]: 6.19 µM
- TGI [57]: > 10 µM
- GI50 [58]: 6.71 µM
- TGI [58]: > 10 µM

Compound: O=C1NC(N2CCOCC2)=N/C1=C\c1ccccc1
- TGI [1]: > 100 µM
- TGI [2]: > 100 µM
- TGI [4]: > 100 µM
- TGI [5]: > 100 µM
- TGI [6]: > 100 µM
- TGI [7]: > 100 µM
- TGI [8]: > 100 µM
- TGI [10]: > 100 µM
- TGI [11]: > 100 µM
- TGI [12]: > 100 µM
- TGI [13]: > 100 µM
- TGI [14]: > 100 µM
- TGI [15]: > 100 µM
- TGI [16]: > 100 µM
- TGI [17]: > 100 µM
- TGI [18]: > 100 µM
- TGI [19]: > 100 µM
- TGI [20]: > 100 µM
- TGI [21]: > 100 µM
- TGI [22]: > 100 µM
- TGI [23]: > 100 µM
- TGI [24]: > 100 µM
- TGI [25]: > 100 µM
- TGI [26]: > 100 µM
- TGI [27]: > 100 µM
- TGI [28]: > 100 µM
- TGI [29]: > 100 µM
- TGI [59]: > 100 µM
- TGI [30]: > 100 µM
- TGI [31]: > 100 µM
- TGI [32]: > 100 µM
- TGI [33]: > 100 µM
- TGI [34]: > 100 µM
- TGI [35]: > 100 µM
- TGI [36]: > 100 µM
- TGI [37]: > 100 µM
- TGI [38]: > 100 µM
- TGI [39]: > 100 µM
- TGI [40]: > 100 µM
- TGI [42]: > 100 µM
- TGI [43]: > 100 µM
- TGI [44]: > 100 µM
- TGI [46]: > 100 µM
- TGI [47]: > 100 µM
- TGI [48]: > 100 µM
- TGI [49]: > 100 µM
- TGI [50]: > 100 µM
- TGI [51]: > 100 µM
- TGI [52]: > 100 µM
- TGI [53]: > 100 µM
- TGI [54]: > 100 µM
- TGI [55]: > 100 µM
- TGI [56]: > 100 µM
- TGI [57]: > 100 µM
- TGI [58]: > 100 µM
